In patent US20220153734A1, “Pyrazolopyridine Compounds For IRE1 Inhibition” (Optikira, LLC, priority 2019, published 2022):

Tests used:
[1] = tested on: ARPE-19 cells stably expressing XBP1 (a.a. 1-376); assay: Cellular XBP1 splicing assay (NanoLuc luciferase, thapsigargin); type: cell-based; details: thapsigargin 150 nM
Method in brief: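 ARPE-19 cells carrying an XBP1(1-376)-NanoLuc splicing reporter were pretreated with compound (10-point ½-log series, 0.117% DMSO) for 30 min, then stressed with 150 nM thapsigargin for 4 h at 37° C. Luminescence was read, and IC50 values came from sigmoidal fits of percent inhibition of control.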

IRE1α [2] = biological target: T1, IRE1α (Homo sapiens, UniProt O75460); assay: Biochemical assay: inhibition of RNase activity of IRE1α; details: enzyme 0.325 nM, substrate 100 nM, 20 minutes
T1 construct: purchased Signal Chem E31-11G
Method in brief: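 RNase cleavage monitored as dequenching of a 5′ Alexa Fluor 647/3′ quencher RNA oligo (100 nM), stopped with 5 M urea after 20 min at room temperature. Enzyme 0.325 nM, preceded by 30 min compound pre-incubation; buffer Tris/MgCl2/KCl/DTT/Tween, 4% DMSO final. IC50 from curve fit of % inhibition.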

IRE1α [3] = biological target: T1, IRE1α; assay: Biochemical assay to detect inhibition of kinase activity of IRE1α (ADP-Glo)
Procedure: Biochemical Assays to Detect Inhibition of Kinase Activity of IRE1α
The kinase reactions were performed in 384 well white ProxiPlate-384 Plus plates (PERKIN Elmer 6008280) using 25 mM MOPS assay buffer with 1 mM dithiothreitol, 25 mM MgCl2, 12.5 mM β-glycerophosphate, 5 mM EGTA, and 50 μg/mL BSA. Test compounds were prepared on the day of assay and dispensed using D300 digital dispenser as a 10-point ½ log dilution series in duplicate, normalized to a final DMSO concentration of 3%. Test compounds were pre-incubated for 30 min at room temperature with 10 nM IRE1α kinase (E31-11G from Signal Chem) in 2.5 μL of assay buffer and the reaction started by addition of 2.5 μL of ATP in assay buffer, to give a final ATP concentration of 100 μM and 5 nM IRE1α kinase. After 4 hours incubation at room temperature the reactions were stopped and the kinase activity determined using the ADP-Glo™ reagent from Promega, according to the manufacturer's instructions. Luminescence was measured on a luminometer (EnVision, PerkinElmer) and IC50 values calculated by fitting a sigmoidal curve to percent inhibition of control versus Log10 of compound concentration.

T1 sequence (O75460 468-977 limits assumed): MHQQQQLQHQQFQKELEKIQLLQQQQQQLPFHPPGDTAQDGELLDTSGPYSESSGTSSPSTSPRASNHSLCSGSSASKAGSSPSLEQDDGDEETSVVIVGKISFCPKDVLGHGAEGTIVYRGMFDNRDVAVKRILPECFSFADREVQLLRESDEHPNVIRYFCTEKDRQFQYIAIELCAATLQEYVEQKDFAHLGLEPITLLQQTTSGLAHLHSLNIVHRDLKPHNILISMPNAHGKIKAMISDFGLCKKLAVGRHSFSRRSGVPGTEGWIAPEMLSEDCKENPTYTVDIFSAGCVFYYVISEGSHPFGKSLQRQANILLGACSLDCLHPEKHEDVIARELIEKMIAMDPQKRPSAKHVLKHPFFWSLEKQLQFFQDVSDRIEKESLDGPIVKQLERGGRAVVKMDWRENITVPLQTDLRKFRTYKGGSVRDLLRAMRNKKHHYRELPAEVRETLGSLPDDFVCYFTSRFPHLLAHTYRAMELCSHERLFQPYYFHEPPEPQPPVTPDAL

IC50 ([1]; Homo sapiens, ARPE-19, 4 h) [nM]	IC50 (IRE1α [2]) [nM]	IC50 (IRE1α [3]) [nM]	IC50 ([1]; 4 hour) [nM]	Compound
15	6.1	4.6		CCn1nc(-c2ccc(NS(=O)(=O)c3ccccc3Cl)c(F)c2)c2c(N)ncc([C@H]3CC[C@H](NC4COC4)CC3)c21 [Compound A52, N-(4-(4-amino-1-ethyl-7-((1r,4r)-4-(oxetan-3-ylamino)cyclohexyl)-1H-pyrazolo[4,3-c]pyridin-3-yl)-2-fluorophenyl)-2-chlorobenzenesulfonamide]
2.5	0.4	0.9		CC(C)n1nc(-c2ccc(NS(=O)(=O)Cc3ccccc3F)c(F)c2)c2c(N)ncc([C@H]3CC[C@H](NC4COC4)CC3)c21 [Compound A57, N-(4-(4-amino-1-isopropyl-7-((1r,4r)-4-(oxetan-3-ylamino)cyclohexyl)-1H-pyrazolo[4,3-c]pyridin-3-yl)-2-fluorophenyl)-1-(2-fluorophenyl)methanesulfonamide]
5.6	1.3	2		CC(C)n1nc(-c2cc(F)c(NS(=O)(=O)Cc3ccccc3Cl)cc2F)c2c(N)ncc([C@H]3CC[C@H](NC4COC4)CC3)c21 [Compound A47, N-(4-(4-amino-1-isopropyl-7-((1r,4r)-4-(oxetan-3-ylamino)cyclohexyl)-1H-pyrazolo[4,3-c]pyridin-3-yl)-2,5-difluorophenyl)-1-(2-chlorophenyl)methanesulfonamide]
	0.8	1.9	6.5	CC(C)n1nc(-c2ccc(NS(=O)(=O)Cc3ccccc3F)c(F)c2)c2c(N)ncc(C3=CCC(NC4COC4)CC3)c21 (single isomer, unassigned) [Compound B2, N-(4-(4-amino-1-isopropyl-7-(4-(oxetan-3-ylamino)cyclohex-1-en-1-yl)-1H-pyrazolo[4,3-c]pyridin-3-yl)-2-fluorophenyl)-1-(2-fluorophenyl)methanesulfonamide]
16	8	4.3		Nc1ncc([C@H]2CC[C@H](NC3COC3)CC2)c2c1c(-c1ccc(NS(=O)(=O)c3ccccc3F)c(F)c1)nn2C1CC1 [Compound A41, N-(4-(4-amino-1-cyclopropyl-7-((1r,4r)-4-(oxetan-3-ylamino)cyclohexyl)-1H-pyrazolo[4,3-c]pyridin-3-yl)-2-fluorophenyl)-2-fluorobenzenesulfonamide]
6.4	1.9	1.6		CC(C)n1nc(-c2cc(F)c(NS(=O)(=O)Cc3ccccc3F)cc2F)c2c(N)ncc([C@H]3CC[C@H](NC4COC4)CC3)c21 [Compound A48, N-(4-(4-amino-1-isopropyl-7-((1r,4r)-4-(oxetan-3-ylamino)cyclohexyl)-1H-pyrazolo[4,3-c]pyridin-3-yl)-2,5-difluorophenyl)-1-(2-fluorophenyl)methanesulfonamide]
31	8.2	2.8		CCn1nc(-c2cc(F)c(NS(=O)(=O)c3ccccc3Cl)cc2F)c2c(N)ncc([C@H]3CC[C@H](NC4COC4)CC3)c21 [Compound A44, N-(4-(4-amino-1-ethyl-7-((1r,4r)-4-(oxetan-3-ylamino)cyclohexyl)-1H-pyrazolo[4,3-c]pyridin-3-yl)-2,5-difluorophenyl)-2-chlorobenzenesulfonamide]
7.9	5.7	1.9		CC(C)n1nc(-c2ccc(NS(=O)(=O)c3ccccc3F)c(F)c2)c2c(N)ncc([C@H]3CC[C@H](NC4COC4)CC3)c21 [Compound A1, N-(4-(4-amino-1-isopropyl-7-((1r,4r)-4-(oxetan-3-ylamino)cyclohexyl)-1H-pyrazolo[4,3-c]pyridin-3-yl)-2-fluorophenyl)-2-fluorobenzenesulfonamide]
19	3.2	3		CCn1nc(-c2cc(F)c(NS(=O)(=O)Cc3ccccc3Cl)cc2F)c2c(N)ncc([C@H]3CC[C@H](NC4COC4)CC3)c21 [Compound A42, N-(4-(4-amino-1-ethyl-7-((1r,4r)-4-(oxetan-3-ylamino)cyclohexyl)-1H-pyrazolo[4,3-c]pyridin-3-yl)-2,5-difluorophenyl)-1-(2-chlorophenyl)methanesulfonamide]
		5.9	36	CC(C)n1nc(-c2ccc(NS(=O)(=O)c3ccccc3F)c(F)c2)c2c(N)ncc(C3=CCC(NC4COC4)CC3)c21 (single isomer, unassigned) [Compound B59, N-(4-(4-amino-1-isopropyl-7-(4-(oxetan-3-ylamino)cyclohex-1-en-1-yl)-1H-pyrazolo[4,3-c]pyridin-3-yl)-2-fluorophenyl)-2-fluorobenzenesulfonamide]
	14		52	CCn1nc(-c2ccc(NS(=O)(=O)c3cc(C)ccc3F)c(F)c2)c2c(N)ncc(C3=CCC(NC4COC4)CC3)c21 (single isomer, unassigned) [Compound B35, N-(4-(4-amino-1-ethyl-7-(4-(oxetan-3-ylamino)cyclohex-1-en-1-yl)-1H-pyrazolo[4,3-c]pyridin-3-yl)-2-fluorophenyl)-2-fluoro-5-methylbenzenesulfonamide]
24	2.9			COCCN[C@H]1CC[C@H](c2cnc(N)c3c(-c4cc(F)c(NS(=O)(=O)c5cccc(OC)c5F)cc4F)nn(C(C)C)c32)CC1 [Compound A7, N-(4-(4-amino-1-isopropyl-7-((1r,4r)-4-((2-methoxyethyl)amino)cyclohexyl)-1H-pyrazolo[4,3-c]pyridin-3-yl)-2,5-difluorophenyl)-2-fluoro-3-methoxybenzenesulfonamide]
	1.2		6.5	COCC(C)NC1CC=C(c2cnc(N)c3c(-c4ccc(NS(=O)(=O)Cc5ccccc5Cl)c(F)c4)nn(C(C)C)c23)CC1 (single isomer, unassigned) [Compound B5, N-(4-(4-amino-1-isopropyl-7-(4-((1-methoxypropan-2-yl)amino)cyclohex-1-en-1-yl)-1H-pyrazolo[4,3-c]pyridin-3-yl)-2-fluorophenyl)-1-(2-chlorophenyl)methanesulfonamide]
77	7.8			COCCN[C@H]1CC[C@H](c2cnc(N)c3c(-c4cc(F)c(NS(=O)(=O)c5ccc(Cl)cc5F)cc4F)nn(C(C)C)c32)CC1 [Compound A16, N-(4-(4-amino-1-isopropyl-7-((1r,4r)-4-((2-methoxyethyl)amino)cyclohexyl)-1H-pyrazolo[4,3-c]pyridin-3-yl)-2,5-difluorophenyl)-4-chloro-2-fluorobenzenesulfonamide]
1400	440			CC(C)n1nc(-c2ccc(NS(=O)(=O)c3ccccc3F)c(F)c2)c2c(N)ncc([C@H]3CC[C@@H](NC4COC4)CC3)c21 [Compound A12, N-(4-(4-amino-1-isopropyl-7-((1s,4s)-4-(oxetan-3-ylamino)cyclohexyl)-1H-pyrazolo[4,3-c]pyridin-3-yl)-2-fluorophenyl)-2-fluorobenzenesulfonamide]
100	40			CCn1nc(-c2ccc(NS(=O)(=O)c3ccccc3Cl)c(F)c2)c2c(N)ncc(C3=CCC(NC4COC4)CC3)c21 (racemic) [racemic mixture of B61 & B62, N-(4-(4-amino-1-ethyl-7-(4-(oxetan-3-ylamino)cyclohex-1-en-1-yl)-1H-pyrazolo[4,3-c]pyridin-3-yl)-2-fluorophenyl)-2-chlorobenzenesulfonamide]
